The values below come from patent US20250034520A1, “INCREASING DEVELOPMENTAL POTENTIAL OF HUMAN PREIMPLANTATION EMBRYOS BY REDUCING GENETIC INSTABILITY, ANEUPLOIDIES AND CHROMOSOMAL MOSAICISM” (THE TRUSTEES OF COLUMBIA UNIVERSITY IN THE CITY OF NEW YORK, priority 2022, published 2025).

The test system of experiment [1] is human zygotes. Kind of experiment: DNA damage foci immunostaining in human zygotes/parthenotes. The format is cell-based. As for the experimental part: (§1) Embryos, mouse and human, were cultured in Global Total (Life-Global) for the duration of the experiments and with added compounds as outlined below. Incubation in RNA polymerase inhibitors triptolide (1 mM) or alpha amanitin (20 mg/ml) was performed from the 2PN stage (day1) to day3 of human development. Incubation in aphidicolin was performed at 2 mM. […] Mirin was used at a concentration of 50 mM. Olaparib was used to inhibit PARP at a concentration of 10 mM. All experiments were conducted during incubation at 37° C. with 5% CO2 and 19-20% O2. Chemical stock solutions were prepared in DMSO at concentrations at least 1000× higher than the final concentration.
Artificial activation of human MII oocytes was performed using two pulses of 2.7 kV/cm at 50 ms using ECFG21 (Nepagene) in fusion buffer consisting of 0.25 M d-sorbitol buffer containing 0.1 mM calcium acetate, 0.5 mM magnesium acetate, 0.5 mM HEPES, and 1 mg ml^−1 fatty-acid-free BSA as previously described (Tachibana et al., 2013). Thereafter, oocytes were incubated for 3.5-4 h in 10 mg/ml puromycin, followed by a wash step and following culture in Global total.
(§2) Following the experimental exposures, mouse and human embryos were fixed in 2% paraformaldehyde (PFA) and 0.25% Triton X-100 in PBS for 10 minutes at room temperature, serially washed in phosphate-buffered solution (PBS) at room temperature, then stored in PBS at 4° C. until staining and imaging. Embryos were placed in 10-20 ml droplets of primary antibody solution within plastic tissue culture dishes covered with mineral oil for 1 hour at room temperature, serially washed (×2) in PBS containing 0.01% Triton X-100 to prevent embryos sticking to oil, then transferred to 10-20 ml secondary antibody solution and Hoechst (dilution 1:500) for 30 minutes. Embryos were then serially washed (×2) and placed in 5 ml droplets of PBS with 0.5% serum albumin in uncoated glass bottom dishes (Mattek) covered with embryo culture oil for imaging. The following primary antibodies were used across experiments as described above: Oct-4, γH2AX, RPA32, RPA32 S4/S8, RPA32 S33, 53BP1, RAD51, Centromere, and phospho-CHK1. […] The appropriate secondary antibodies conjugated with Alexa Fluor 488, Alexa Fluor 555, CF 568, or Alexa Fluor 647 were diluted at 1:500-1:1000. Ethynyl deoxyuridine (EdU) labeling of zygotes and embryos was performed using the labeling kit (Thermo Fisher Scientific) as described by the manufacturer. 10 mM EdU was added to culture medium for 1 h at the indicated time points, and cells were harvested and fixed thereafter. 5-ethynyl uridine (EU) labeling was performed by incubating day3 cleavage stage embryos for 4 hours in Global total containing 0.2 mM EU.
(§3) Embryos were imaged with confocal microscopy using a Zeiss LSM (LSM 710) at a magnification of 63× and the Zeiss Zen software. Images were obtained using 488-, 543- and 633-nm lasers and bright-field microscopy. The number of confocal sections was adjusted to capture the entire nucleus or the entire embryo according to the experimental design as described above. Cell numbers and staining foci numbers were counted manually. Nuclei were identified by the presence of Hoechst33342. Foci were identified if at least 3× greater intensity than nuclear average, spherical in appearance, and overlapping with Hoechst33342 staining. Inner cell masses were identified by the presence of Oct4 within a blastocyst embryo. Active DNA replication was identified by the presence of EdU. DNA damage was identified by the detection of γH2AX and RPA foci within the nucleus. Mechanisms of DNA repair were identified through the detection of RPA S4/S8, RPA S33, Rad51 and 53BP1 foci within the nucleus.

In experiment [2] the target is ATR (Homo sapiens, UniProt Q13535). Particulars: cited from earlier work.
For experiment [3], the system named is mouse 1-cell embryos. Kind of experiment: timing of mitotic entry in mouse 1-cell embryos. Format: cell-based. Particulars: G2 phase mouse embryos, compared with untreated controls. Here is the method:
as §1
(§4) Mouse oocytes were activated at 1-6 hours post retrieval using 2 mM ionomycin (Sigma Aldrich) in Global Total medium for 5 minutes at 37° C. followed by culture in 10 mM puromycin and 5 mg/ml cytochalasin B for 3 hours, then cytochalasinB only for 2 hours and 10 minutes to prevent second polar body extrusion.

The subject of experiment [4] is mouse 2-cell embryos. Kind of experiment: single-cell sequencing chromosome content analysis, mouse 2-cell embryos. Particulars: mouse embryos, Wee1 kinase inhibitor added alongside aphidicolin. Format: cell-based. Here is the method: as §1
Single cells from blastomeres were collected on the heated stage (Tokai Hit) of an Olympus IX71 inverted microscope equipped with Narishige micromanipulators and a zona pellucida laser (Hamilton-Thorne). Single nuclei were isolated from blastomeres by lysis and dissection of different nuclei using two […] diameter Piezo micropipettes and Holding pipette (Origio). Single embryo cells or nuclei were placed manually in single wells of a 96-well plate containing 9 ml of lysis buffer, prepared as a master mix of 798 ml H2O, 6 ml of 10 mg/mL Proteinase K solution (Sigma-Aldrich), and 96 ml 10× Single Cell Lysis and Fragmentation buffer (Sigma-Aldrich). Single cells/single nuclei were lysed by heating 96-well plates containing single cells/single nuclei at 50° C. for 1 hour, followed by incubation at 99° C. for four minutes using a PCR thermocycler. Single-cell/single-nuclei whole genome amplification (WGA) using degenerate oligo-nucleotide priming PCR (DOP-PCR) was performed using the SEQPLEX Enhanced DNA Amplification Kit (SEQXE, Sigma) according to the manufacturer's instructions. In addition, a modified version of the DOP-PCR protocol that allows inline indexing of WGA DNA was also applied. WGA DNA was subsequently processed for Illumina library sequencing preparation using standard TruSeq indexing methods via the NEBNext Ultra II DNA Library Prep Kit for Illumina (New England Biolabs). NEBNext Multiplex Oligos for Illumina (96 index primers) were used for four amplification cycles. Library DNA was quantified using Qubit dsDNA HS Assay Kit (Invitrogen, Carlsbad, CA, USA) and library size distribution was confirmed using a 2100 Bioanalyzer DNA 1000 Kit (Agilent, Santa Clara, CA, USA). A unimodal curve centered around 300-500 bp was scored as a successful library preparation. Subsequently, 30 mL of each pooled library was sent for sequencing at a concentration of 20 ng/ml. Mutiplex sequencing was performed using Illumina HiSeq 2500 single end indexed run (SR100) while targeting a coverage of approximately 1 million reads per cell/nuclei, sufficient for quantitative genome-wide copy number analysis.
Analysis of DNA sequencing data was performed as previously described (Baslan et al., 2015) with minor modifications as outlined below. Briefly, multiplex sequencing data were demultiplexed according to unique barcodes with reads assigned to their respective single-cell or single-nuclei. Unique reads were aligned to the reference human and mouse genome builds, hg19 and mm9, respectively. Each genome was partitioned into 5000 bins using a previously described algorithm (Varbin) that corrects for genome sequence mappability (Baslan et al., 2012; Navin et al., 2011). Uniquely mapped reads were sorted, indexed and subsequently counted within the partitioned genomic bins. For single-cell copy number inference, read count data were normalized genome-wide followed by CBS segmentation (Olshen et al., 2004) and transformed into integer copy number states using a least-squares fit approach (Baslan et al., 2015).

The subject of experiment [5] is mouse embryos. Kind of experiment: mouse preimplantation development and embryo quality. Format: cell-based. Here is the method: as §1, §4
as §2, with “phospho-CHK1. Phospho-specific antibodies were quality controlled through ATR dependence of foci formation in mouse zygotes, and for γH2AX also in human zygotes.” for “phospho-CHK1.”
as §3

Experiment [6] deals with mouse zygotes. Kind of experiment: DNA damage foci immunostaining in mouse zygotes/embryos. The format is cell-based. Particulars: mouse zygotes, mirin combined with aphidicolin. Here is the method: as §1, §4
as §2, with “phospho-CHK1. Phospho-specific antibodies were quality controlled through ATR dependence of foci formation in mouse zygotes, and for γH2AX also in human zygotes.” for “phospho-CHK1.”
as §3

Experiment [7] deals with human embryos. Kind of experiment: nucleation and development of human embryos. The format is cell-based. The note with it: 2PN zygotes incubated days 1 to 3, versus untreated cleavage-stage embryos.
Excerpt: Cryopreserved human cleavage-stage and blastocyst embryos and unfertilized oocytes were anonymously donated from individuals and couples who provided consent for use in research. Embryos were of good quality and had been cryopreserved for potential clinical use but were then no longer needed and donated for research. The cause of treatment is not disclosed. Range of maternal age of donated embryos is between 27-43. Embryos of both sexes were used, as provided by the unbiased fertilization of oocytes with sperm carrying either a Y or X chromosome. Cleavage stage embryos were thawed using the one-step thaw protocol using Global total with HEPES. Blastocyst stage embryos were thawed using the Quinn's Advantage thaw kit, then exposed to experimental conditions as outlined below. Vitrified embryos were thawed with the ECMPC warming solution set. Embryo culture was performed in Global Total. All experiments were conducted during incubation at 37° C. with 5% CO2 and 20% 02.
as §1
(§5) Following the experimental exposures, mouse and human embryos were fixed in 2% paraformaldehyde (PFA) and 0.25% Triton X-100 in PBS for 10 minutes at room temperature, serially washed in phosphate-buffered solution (PBS) at room temperature, then stored in PBS at 4° C. until staining and imaging. Embryos were placed in 10-20 ml droplets of primary antibody solution within plastic tissue culture dishes covered with mineral oil for 1 hour at room temperature, serially washed (×2) in PBS containing 0.01% Triton X-100 to prevent embryos sticking to oil, then transferred to 10-20 ml secondary antibody solution and Hoechst (dilution 1:500) for 30 minutes. Embryos were then serially washed (×2) and placed in 5 ml droplets of PBS with 0.5% serum albumin in uncoated glass bottom dishes (Mattek) covered with embryo culture oil for imaging. […]
Embryos were imaged with confocal microscopy using a Zeiss LSM (LSM 710) at a magnification of 63× and the Zeiss Zen software. […] Cell numbers and staining foci numbers were counted manually. […]

Experiment [8] has as its system human embryos. Kind of experiment: ethynyl uridine label incorporation in human embryos. Format: cell-based. The note with it: incubation from days 1 to 3. As for the experimental part:
as §1
as §5, with “minutes.” for “minutes. Embryos were then serially washed (×2) and placed in 5 ml droplets of PBS with 0.5% serum albumin in uncoated glass bottom dishes (Mattek) covered with embryo culture oil for imaging.”

ATR, sequence (Q13535 whole entry): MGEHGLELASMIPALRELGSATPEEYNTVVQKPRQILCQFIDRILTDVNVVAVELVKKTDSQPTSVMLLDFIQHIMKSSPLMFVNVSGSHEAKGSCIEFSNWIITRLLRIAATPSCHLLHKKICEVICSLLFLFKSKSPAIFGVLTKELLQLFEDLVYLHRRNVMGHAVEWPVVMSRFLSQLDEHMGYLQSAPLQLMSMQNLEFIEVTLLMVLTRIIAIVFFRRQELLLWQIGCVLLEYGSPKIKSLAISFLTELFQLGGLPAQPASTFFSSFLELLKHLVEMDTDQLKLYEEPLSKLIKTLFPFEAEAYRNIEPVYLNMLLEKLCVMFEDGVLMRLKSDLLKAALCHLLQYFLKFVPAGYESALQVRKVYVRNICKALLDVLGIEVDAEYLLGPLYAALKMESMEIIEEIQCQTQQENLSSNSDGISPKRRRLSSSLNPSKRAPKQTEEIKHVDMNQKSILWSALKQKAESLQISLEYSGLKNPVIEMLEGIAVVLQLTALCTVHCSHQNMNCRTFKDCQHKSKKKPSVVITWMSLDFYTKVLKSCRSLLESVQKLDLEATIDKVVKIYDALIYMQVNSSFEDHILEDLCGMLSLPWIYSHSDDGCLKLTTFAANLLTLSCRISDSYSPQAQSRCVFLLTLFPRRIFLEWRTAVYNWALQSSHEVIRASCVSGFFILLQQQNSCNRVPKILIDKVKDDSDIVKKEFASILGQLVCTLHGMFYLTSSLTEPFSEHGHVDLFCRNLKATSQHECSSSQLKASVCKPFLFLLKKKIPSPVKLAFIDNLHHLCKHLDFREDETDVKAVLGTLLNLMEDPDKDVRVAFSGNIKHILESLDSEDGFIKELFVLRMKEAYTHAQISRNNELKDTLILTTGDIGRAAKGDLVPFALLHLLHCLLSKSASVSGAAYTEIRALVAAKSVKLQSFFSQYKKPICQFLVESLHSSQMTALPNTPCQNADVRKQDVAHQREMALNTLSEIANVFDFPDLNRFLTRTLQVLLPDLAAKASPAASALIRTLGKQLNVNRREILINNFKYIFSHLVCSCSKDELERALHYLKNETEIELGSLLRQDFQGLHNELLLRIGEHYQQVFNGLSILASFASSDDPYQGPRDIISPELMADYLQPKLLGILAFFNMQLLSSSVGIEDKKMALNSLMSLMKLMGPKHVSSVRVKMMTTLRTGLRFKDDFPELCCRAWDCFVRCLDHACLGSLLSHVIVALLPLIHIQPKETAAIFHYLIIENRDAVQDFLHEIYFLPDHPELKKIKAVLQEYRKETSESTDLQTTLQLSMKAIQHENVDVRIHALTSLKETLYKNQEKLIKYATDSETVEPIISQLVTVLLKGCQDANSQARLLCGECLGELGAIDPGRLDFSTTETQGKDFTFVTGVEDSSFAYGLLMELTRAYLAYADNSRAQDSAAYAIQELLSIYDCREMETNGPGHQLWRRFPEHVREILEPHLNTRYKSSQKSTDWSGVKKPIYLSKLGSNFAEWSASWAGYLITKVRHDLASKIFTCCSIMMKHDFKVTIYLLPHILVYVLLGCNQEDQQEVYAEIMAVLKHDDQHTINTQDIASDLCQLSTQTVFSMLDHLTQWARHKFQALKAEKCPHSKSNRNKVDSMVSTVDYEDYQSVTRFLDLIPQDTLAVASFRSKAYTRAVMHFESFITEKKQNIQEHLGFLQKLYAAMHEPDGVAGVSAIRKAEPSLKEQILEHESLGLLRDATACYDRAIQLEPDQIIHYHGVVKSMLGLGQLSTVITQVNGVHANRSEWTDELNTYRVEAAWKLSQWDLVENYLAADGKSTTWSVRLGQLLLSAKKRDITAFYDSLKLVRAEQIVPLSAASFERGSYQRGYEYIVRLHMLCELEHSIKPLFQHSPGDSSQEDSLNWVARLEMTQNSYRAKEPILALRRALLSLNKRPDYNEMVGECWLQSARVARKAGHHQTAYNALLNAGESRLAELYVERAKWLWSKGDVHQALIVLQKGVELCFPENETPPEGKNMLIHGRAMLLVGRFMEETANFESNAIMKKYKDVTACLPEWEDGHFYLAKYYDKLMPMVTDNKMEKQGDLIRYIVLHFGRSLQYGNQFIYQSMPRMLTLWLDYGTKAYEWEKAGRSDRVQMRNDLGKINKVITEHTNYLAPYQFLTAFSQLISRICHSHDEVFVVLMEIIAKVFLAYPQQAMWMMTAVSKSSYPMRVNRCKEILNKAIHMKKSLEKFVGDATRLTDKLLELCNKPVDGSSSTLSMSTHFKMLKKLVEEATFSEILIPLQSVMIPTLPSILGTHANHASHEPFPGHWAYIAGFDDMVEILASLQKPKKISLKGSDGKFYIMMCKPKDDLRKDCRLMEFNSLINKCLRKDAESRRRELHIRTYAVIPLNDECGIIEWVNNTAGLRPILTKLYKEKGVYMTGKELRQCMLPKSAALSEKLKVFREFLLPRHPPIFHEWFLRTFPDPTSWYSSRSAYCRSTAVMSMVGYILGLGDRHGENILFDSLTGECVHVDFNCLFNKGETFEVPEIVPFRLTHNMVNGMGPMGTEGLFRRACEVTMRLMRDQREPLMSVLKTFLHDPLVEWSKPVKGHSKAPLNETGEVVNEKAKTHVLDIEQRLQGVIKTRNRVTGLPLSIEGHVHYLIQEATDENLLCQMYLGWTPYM
ATR, sequence (Q8WXE1 whole entry partner): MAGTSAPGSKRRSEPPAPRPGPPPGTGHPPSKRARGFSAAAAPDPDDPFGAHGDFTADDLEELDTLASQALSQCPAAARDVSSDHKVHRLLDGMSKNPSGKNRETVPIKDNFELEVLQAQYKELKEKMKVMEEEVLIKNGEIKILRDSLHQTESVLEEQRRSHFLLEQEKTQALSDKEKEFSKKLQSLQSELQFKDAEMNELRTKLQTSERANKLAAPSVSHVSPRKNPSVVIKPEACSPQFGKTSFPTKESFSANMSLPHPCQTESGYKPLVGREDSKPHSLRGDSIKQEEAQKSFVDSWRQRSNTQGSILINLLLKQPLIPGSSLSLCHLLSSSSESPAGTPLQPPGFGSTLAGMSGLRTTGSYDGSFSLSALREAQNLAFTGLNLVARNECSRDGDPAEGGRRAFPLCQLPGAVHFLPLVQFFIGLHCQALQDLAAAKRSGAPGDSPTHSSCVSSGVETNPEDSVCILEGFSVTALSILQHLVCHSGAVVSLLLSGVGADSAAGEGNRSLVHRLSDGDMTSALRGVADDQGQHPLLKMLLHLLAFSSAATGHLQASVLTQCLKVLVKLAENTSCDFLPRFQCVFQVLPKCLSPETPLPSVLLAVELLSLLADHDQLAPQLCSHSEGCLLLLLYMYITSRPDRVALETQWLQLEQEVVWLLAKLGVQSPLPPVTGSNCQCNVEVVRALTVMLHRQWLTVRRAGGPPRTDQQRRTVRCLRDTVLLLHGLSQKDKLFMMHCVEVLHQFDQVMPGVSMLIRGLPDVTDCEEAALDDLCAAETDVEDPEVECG

As to `CS(=O)(=O)c1ccc(-c2cnc(N)c(C(=O)Nc3ccccc3)n2)cc1` [ATR45], the “number of γH2AX foci” value in experiment [1] (parthenogenetically activated oocytes, inhibitor from 14-18 h into the first cell cycle, relative to controls) was “reduced significantly”. The “selectivity over related kinases ATM or DNA-PK” value in experiment [2] is over 600 ×.
The compound `C=CCn1c(=O)c2cnc(Nc3ccc(N4CCN(C)CC4)cc3)nc2n1-c1cccc(C(C)(C)O)n1` [Wee1 kinase inhibitor] registered an advance of mitosis in experiment [3] of 1.5 h. Besides, the genome after mitosis entry in experiment [4] is given as “highly fragmented genome”. Also, the developmental potential result in experiment [5] (treatment in G2 phase, compared with untreated controls) was “impaired”.
For `N=C1NC(=O)/C(=C/c2ccc(O)cc2)S1` [mirin], the “number of RAD51 foci, average” value in experiment [1] (human zygotes, combined exposure to aphidicolin and mirin) amounted to 50 sites. In experiment [6], the “number of Rad51 foci” value is recorded as “more than 50” and the “number of foci marked by γH2AX” value is “more than 100”.
Take `CC(C)[C@]12O[C@H]1[C@@H]1O[C@]13[C@]1(O[C@H]1C[C@H]1C4=C(CC[C@@]13C)C(=O)OC4)[C@@H]2O` [triptolide]: the “mouse embryos developed beyond the two-cell stage” value in experiment [5] (in the presence of the inhibitor) is listed as 0/15. In addition, in experiment [7], the micronucleation result is given as “comparable”. Besides, the “embryos showing ethynyl uridine label incorporation” value in experiment [8] is 0/4.
As to a-amanitin, the micronucleation result in experiment [7] is given as “comparable”.
